Reference: patent publication US20240270821A1, “GIP/GLP1/GCG TRI-RECEPTOR AGONISTS AND USES THEREOF” (priority 2023, published 2024)
Read-outs that look alike come from different tables or passages of the source. Starred links: 1 amine or outer side, 2 acyl side, 3 side chain; linkers in the order of their positions; H or OH if unused. Non-standard residues stand in square brackets, D forms with d. Groups on a side chain read outwards from the residue. *: point of attachment. C20 diacid = O=C(O)CCCCCCCCCCCCCCCCCCC(=O)*; C18 diacid = O=C(O)CCCCCCCCCCCCCCCCC(=O)*; αMePhe(2-F) = C[C@](N)(Cc1ccccc1F)C(=O)O; γGlu = O=C(O)[C@H](CCC(=O)[*:2])N[*:1]; αMe4Pal = C[C@](N)(Cc1ccncc1)C(=O)O; αMeY = C[C@](N)(Cc1ccc(O)cc1)C(=O)O; 4Pal = N[C@@H](Cc1ccncc1)C(=O)O; αMeL = CC(C)C[C@](C)(N)C(=O)O; Orn = NCCC[C@H](N)C(=O)O; AEEA = NCCOCCOCC(=O)O; Aib = CC(C)(N)C(=O)O

Key:
Type in all cases: cell-based
human GcgR = human GcgR (Homo sapiens, UniProt P47871); experiment: Functional cAMP activity in the presence of 1% HSA; details: read-out: cAMP Rel EC50, hGcgR
hGIPR [1] = biological target: T1, hGIPR (Homo sapiens, UniProt P48546); experiment: Functional cAMP activity in the presence of 1% HSA; details: read-out: cAMP Rel EC50, hGIPR
T1 sequence (P48546 22-466): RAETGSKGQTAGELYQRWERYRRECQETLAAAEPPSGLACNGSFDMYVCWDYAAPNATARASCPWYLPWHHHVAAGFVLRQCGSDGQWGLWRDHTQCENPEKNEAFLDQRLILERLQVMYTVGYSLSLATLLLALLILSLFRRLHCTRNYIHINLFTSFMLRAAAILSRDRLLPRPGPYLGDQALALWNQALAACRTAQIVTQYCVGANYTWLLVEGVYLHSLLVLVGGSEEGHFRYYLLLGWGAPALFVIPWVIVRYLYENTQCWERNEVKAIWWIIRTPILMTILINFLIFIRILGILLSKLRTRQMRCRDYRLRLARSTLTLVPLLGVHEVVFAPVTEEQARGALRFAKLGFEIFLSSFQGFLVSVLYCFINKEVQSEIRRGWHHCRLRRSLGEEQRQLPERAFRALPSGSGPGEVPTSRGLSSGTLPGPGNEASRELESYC

hGLP-1R [2] = biological target: T2, hGLP-1R (Homo sapiens, UniProt P43220); experiment: Functional cAMP activation in the presence of 0.1% casein (no HSA); details: read-out: Relative cAMP EC50, hGLP-1R;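 also: intracellular cAMP rise after 30 min at 37 °C read by HTRF, normalized between buffer only (0%) and maximal control ligand (100%), four-parameter variable-slope fit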
hGLP-1R [3] = biological target: T2, hGLP-1R; experiment: Functional cAMP activity in the presence of 1% HSA; details: read-out: cAMP Rel EC50, hGLP-1R
hGcgR = hGcgR (Homo sapiens, UniProt P47871); experiment: Functional cAMP activation in the presence of 0.1% casein (no HSA); details: read-out: Relative cAMP EC50, hGcgR;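 also: intracellular cAMP rise after 30 min at 37 °C, read by HTRF against a cAMP standard curve, scaled from buffer only (0%) to maximal control ligand response (100%)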
hGIPR [4] = biological target: T1, hGIPR; experiment: as above; details: read-out: Relative cAMP EC50, hGIPR
[5] = in the presence of 0.1% casein (no HSA), geometric mean
[6] = HEK-293 clonal cell line, 1% HSA, geometric mean of relative EC50
[7] = in the presence of 0.1% casein (no HSA), geometric mean of relative EC50
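For Relative cAMP EC50, hGIPR in this document: intracellular cAMP rise after 30 min at 37 °C read by HTRF against a standard curve, scaled between buffer alone (0%) and top control ligand concentration (100%), four-parameter fit.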

T2 sequence (P43220 24-463): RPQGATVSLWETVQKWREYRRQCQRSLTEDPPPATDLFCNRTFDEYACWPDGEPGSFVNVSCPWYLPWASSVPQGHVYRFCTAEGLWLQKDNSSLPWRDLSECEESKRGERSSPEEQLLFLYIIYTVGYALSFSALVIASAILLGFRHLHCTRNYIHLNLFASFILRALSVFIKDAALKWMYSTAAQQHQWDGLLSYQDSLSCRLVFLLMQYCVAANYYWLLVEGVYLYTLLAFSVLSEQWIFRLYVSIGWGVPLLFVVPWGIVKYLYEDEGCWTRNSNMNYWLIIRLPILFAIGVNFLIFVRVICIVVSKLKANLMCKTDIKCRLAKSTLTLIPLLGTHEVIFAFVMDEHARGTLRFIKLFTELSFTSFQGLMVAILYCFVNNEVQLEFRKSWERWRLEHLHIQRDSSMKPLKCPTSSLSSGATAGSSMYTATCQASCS
Chain of human GcgR (P47871 26-477): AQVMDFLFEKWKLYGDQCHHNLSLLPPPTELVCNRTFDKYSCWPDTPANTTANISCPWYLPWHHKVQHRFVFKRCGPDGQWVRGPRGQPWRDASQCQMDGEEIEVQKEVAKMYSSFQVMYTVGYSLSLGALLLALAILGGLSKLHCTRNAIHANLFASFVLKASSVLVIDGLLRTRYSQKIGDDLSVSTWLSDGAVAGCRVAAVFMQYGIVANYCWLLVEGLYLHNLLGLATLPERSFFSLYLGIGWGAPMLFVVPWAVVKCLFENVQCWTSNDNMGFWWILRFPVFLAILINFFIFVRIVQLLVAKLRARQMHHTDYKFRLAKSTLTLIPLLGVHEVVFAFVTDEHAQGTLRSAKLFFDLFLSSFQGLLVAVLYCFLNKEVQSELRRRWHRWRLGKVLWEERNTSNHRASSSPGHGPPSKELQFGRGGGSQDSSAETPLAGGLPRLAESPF
Chain of hGcgR (P47871 26-477): as above

Substance | EC50 (human GcgR) [nM] | EC50 (hGIPR [1]) [nM] | EC50 (hGLP-1R [2]) [nM] | EC50 (hGLP-1R [3]) [nM] | EC50 (hGcgR) [nM] | EC50 (hGIPR [4]) [nM] | EC50 (hGLP-1R [2]; [5]) [nM] | EC50 (hGcgR; [5]) [nM] | EC50 (hGIPR [4]; [5]) [nM] | EC50 (human GcgR; [6]) [nM] | EC50 (hGIPR [1]; [6]) [nM] | EC50 (hGLP-1R [2]; [7]) [nM] | EC50 (hGLP-1R [3]; [6]) [nM] | EC50 (hGcgR; [7]) [nM] | EC50 (hGIPR [4]; [7]) [nM]
H-Y[Aib]QGT[αMePhe(2-F)]TSD[4Pal]SILLDKK([γGlu-γGlu-C18 diacid])AQ[Aib]AFIEYLEEGGPSSGEPPPSGTEE-NH2 [Example 608] | 669 | 8.51 | 1.87 | 201 | 7.82 | 0.124 |  |  |  |  |  |  |  |  | 
H-Y[Aib]QGT[αMePhe(2-F)]TSD[4Pal]SILLDKK([γGlu-γGlu-C18 diacid])AQ[Aib]AFIEYLEEGGPSSGEPPPSGTGE-NH2 [Example 607] | 565 | 6.63 | 1.15 | 139 | 8.91 | 0.0879 |  |  |  |  |  |  |  |  | 
H-Y[Aib]QGT[αMePhe(2-F)]TSD[4Pal]SILLDKK([γGlu-γGlu-C18 diacid])AQ[Aib]AFIEYLQEGGPSSGAPPPSGTE-NH2 [Example 553] | 523 | 2.97 | 0.398 | 51 | 4.53 | 0.0371 |  |  |  |  |  |  |  |  | 
H-Y[Aib]QGT[αMePhe(2-F)]TSD[4Pal]SILLDKK([γGlu-γGlu-C18 diacid])AQ[Aib]AFIE[4Pal]LEEGGPSSGAPPPSGTE-NH2 [Example 550] | 996 | 5.94 | 2.12 | 262 | 11.7 | 0.0876 |  |  |  |  |  |  |  |  | 
H-Y[Aib]QGT[αMePhe(2-F)]TSD[4Pal]SILLDKK([γGlu-γGlu-C18 diacid])AQ[Aib]AFIE[αMeY]LEEGGPSSGAPPPSGEGE-NH2 [Example 667] | 215 | 1.46 | 0.42 | 33 | 2.34 | 0.0217 |  |  |  |  |  |  |  |  | 
H-Y[Aib]QGT[αMePhe(2-F)]TSD[4Pal]SILLDKK([γGlu-γGlu-C18 diacid])AQ[Aib]AFIE[αMeY]LEEGGPSSGAPPPSGGGE-NH2 [Example 668] | 203 | 1.69 | 0.325 | 27.1 | 2.03 | 0.0198 |  |  |  |  |  |  |  |  | 
H-Y[Aib]QGT[αMePhe(2-F)]TSD[4Pal]SILLDKK([γGlu-γGlu-C18 diacid])AQ[Aib]AFIE[αMeY]LEEGGPSSGAPPPSGTE-NH2 [Example 551] | 210 | 1.88 | 0.303 | 38.2 | 1.74 | 0.0173 |  |  |  |  |  |  |  |  | 
H-Y[Aib]QGT[αMePhe(2-F)]TSD[4Pal]SILLDKK([γGlu-γGlu-C18 diacid])AQ[Aib]AFIE[αMeY]LEEGGPSSGAPPPSGTGE-NH2 [Example 664] | 179 | 1.18 | 0.356 | 27.7 | 2.12 | 0.0159 |  |  |  |  |  |  |  |  | 
H-Y[Aib]QGT[αMePhe(2-F)]TSD[4Pal]SILLDKQAQK([AEEA-AEEA-γGlu-C20 diacid])AFIEYLLEGGPSSGEPPPSEG-NH2 [Example 347] | 3650 | 17.3 |  | 254 |  |  | 0.798 | 8.88 | 0.0634 |  |  |  |  |  | 
H-Y[Aib]QGT[αMePhe(2-F)]TSD[4Pal]SILLD[Orn]K([γGlu-γGlu-C18 diacid])AQ[Aib]AFIEYLEEGGPSSGAPPPSGTE-NH2 [Example 513] | 1440 | 10.3 | 0.634 | 78.2 | 9.58 | 0.0956 |  |  |  |  |  |  |  |  | 
H-Y[Aib]QGT[αMePhe(2-F)]TSD[4Pal]SILLD[Orn]K([γGlu-γGlu-C18 diacid])AQ[Aib]AFIEYLEEGGPSSGAPPPSGTGE-NH2 [Example 514] | 1150 | 10 | 0.623 | 82 | 6.68 | 0.0744 |  |  |  |  |  |  |  |  | 
H-Y[Aib]QGT[αMePhe(2-F)]TSD[4Pal]SILLD[Orn]K([γGlu-γGlu-C18 diacid])AQ[Aib]AFIEYLQEGGPSSGAPPPSGTEE-NH2 [Example 581] | 1500 | 7.29 | 0.406 | 65.9 | 8.18 | 0.0812 |  |  |  |  |  |  |  |  | 
H-Y[Aib]QGT[αMePhe(2-F)]TSD[4Pal]SILLD[Orn]K([γGlu-γGlu-C18 diacid])AQ[Aib]AFIEYLQEGGPSSGEPPPSGTEE-NH2 [Example 583] | 1250 | 12.3 | 0.542 | 71 | 6.32 | 0.0692 |  |  |  |  |  |  |  |  | 
H-Y[Aib]QGT[αMePhe(2-F)]TSD[4Pal]SILLD[Orn]K([γGlu-γGlu-C18 diacid])AQ[Aib]AFIE[αMeY]LEEGGPSSGAPPPSGTGE-NH2 [Example 665] | 285 | 2.1 | 0.284 | 32.8 | 2.94 | 0.0223 |  |  |  |  |  |  |  |  | 
H-Y[Aib]QGT[αMePhe(2-F)]TSD[4Pal]SILLD[Orn]K([γGlu-γGlu-C18 diacid])AQ[Aib][Orn]FIEYLQEGGPSSGAPPPSGTEE-NH2 [Example 582] | 1060 | 10.8 | 0.298 | 35.5 | 10.5 | 0.103 |  |  |  |  |  |  |  |  | 
H-Y[Aib]QGT[αMePhe(2-F)]TSD[4Pal]SILLD[Orn]K([γGlu-γGlu-C18 diacid])AQ[Aib][Orn]FIE[αMeY]LEEGGPSSGAPPPSGTGE-NH2 [Example 674] | 168 | 2.54 | 0.21 | 17.3 | 2.09 | 0.0264 |  |  |  |  |  |  |  |  | 
H-Y[Aib]QGT[αMePhe(2-F)]TSD[4Pal]SILLD[Orn]K([γGlu-γGlu-C18 diacid])AQ[αMe4Pal][Orn]FI[dE]YLIEGGPSSGEPPPSGTEE-NH2 [Example 584] | 497 | 5.5 | 1 | 137 | 5.29 | 0.0461 |  |  |  |  |  |  |  |  | 
H-Y[Aib]QGT[αMePhe(2-F)]TSD[4Pal]SI[αMeL]LDKK([γGlu-γGlu-C18 diacid])AQ[Aib]AFIEYLEEGGPSSGAPPPSGEGE-NH2 [Example 623] | 832 | 1.48 | 0.907 | 62.2 | 7.94 | 0.0224 |  |  |  |  |  |  |  |  | 
H-Y[Aib]QGT[αMePhe(2-F)]TSD[4Pal]SI[αMeL]LDKK([γGlu-γGlu-C18 diacid])AQ[Aib]AFIEYLEEGGPSSGAPPPSGTGE-NH2 [Example 622] | 641 | 1.19 | 0.776 | 52.3 | 7.7 | 0.0148 |  |  |  |  |  |  |  |  | 
H-Y[Aib]QGT[αMePhe(2-F)]TSD[4Pal]SI[αMeL]LDKK([γGlu-γGlu-C18 diacid])AQ[Aib]AFIEYLEEGGPSSGEPPPSGEGE-NH2 [Example 625] | 657 | 1.81 | 1.16 | 72.1 | 8.53 | 0.0291 |  |  |  |  |  |  |  |  | 
H-Y[Aib]QGT[αMePhe(2-F)]TSD[4Pal]SI[αMeL]LDKK([γGlu-γGlu-C18 diacid])AQ[Aib]AFIEYLEEGGPSSGEPPPSGSEE-NH2 [Example 630] |  |  |  |  |  |  |  |  |  | 872 | 2.96 | 0.762 | 74.5 | 8.07 | 0.0233
H-Y[Aib]QGT[αMePhe(2-F)]TSD[4Pal]SI[αMeL]LDKK([γGlu-γGlu-C18 diacid])AQ[Aib]AFIEYLEEGGPSSGEPPPSGTGE-NH2 [Example 624] | 808 | 1.17 | 0.95 | 63.4 | 8.42 | 0.0222 |  |  |  |  |  |  |  |  | 
H-Y[Aib]QGT[αMePhe(2-F)]TSD[4Pal]SI[αMeL]LDKK([γGlu-γGlu-C18 diacid])AQ[Aib]AFIEYLQEGGPSSGEPPPSGSEE-NH2 [Example 634] |  |  |  |  |  |  |  |  |  | 979 | 1.48 | 0.403 | 34.9 | 6.49 | 0.0195
H-Y[Aib]QGT[αMePhe(2-F)]TSD[4Pal]SI[αMeL]LDKK([γGlu-γGlu-C18 diacid])AQ[Aib]AFIEYLSEGGPSSGEPPPSGSEE-NH2 [Example 632] |  |  |  |  |  |  |  |  |  | 1600 | 5.48 | 0.951 | 88.2 | 13.5 | 0.068
H-Y[Aib]QGT[αMePhe(2-F)]TSD[4Pal]SI[αMeL]LDKK([γGlu-γGlu-C18 diacid])AQ[Aib]AFIEYLTEGGPSSGEPPPSGSEE-NH2 [Example 633] |  |  |  |  |  |  |  |  |  | 1500 | 1.63 | 0.421 | 41.2 | 10.2 | 0.0186
